In assay [1] the test system is Serine/threonine-protein kinase B-raf (Homo sapiens), P15056 [V600E]. In words: Inhibition of BRAF V600E mutant (unknown origin) assessed as residual activity at 100 nM by KINOMEscan analysis relative to control.
The target in assay [2] is Cyclin-dependent kinase 3 (Homo sapiens) (UniProt Q00526). The assay can be described thus: Inhibition of CDK3 (unknown origin) assessed as residual activity at 100 nM by KINOMEscan analysis relative to control.
Assay [3] deals with T1, Tyrosine-protein kinase ITK/TSK (Homo sapiens) (UniProt Q08881).
T1 sequence (whole entry): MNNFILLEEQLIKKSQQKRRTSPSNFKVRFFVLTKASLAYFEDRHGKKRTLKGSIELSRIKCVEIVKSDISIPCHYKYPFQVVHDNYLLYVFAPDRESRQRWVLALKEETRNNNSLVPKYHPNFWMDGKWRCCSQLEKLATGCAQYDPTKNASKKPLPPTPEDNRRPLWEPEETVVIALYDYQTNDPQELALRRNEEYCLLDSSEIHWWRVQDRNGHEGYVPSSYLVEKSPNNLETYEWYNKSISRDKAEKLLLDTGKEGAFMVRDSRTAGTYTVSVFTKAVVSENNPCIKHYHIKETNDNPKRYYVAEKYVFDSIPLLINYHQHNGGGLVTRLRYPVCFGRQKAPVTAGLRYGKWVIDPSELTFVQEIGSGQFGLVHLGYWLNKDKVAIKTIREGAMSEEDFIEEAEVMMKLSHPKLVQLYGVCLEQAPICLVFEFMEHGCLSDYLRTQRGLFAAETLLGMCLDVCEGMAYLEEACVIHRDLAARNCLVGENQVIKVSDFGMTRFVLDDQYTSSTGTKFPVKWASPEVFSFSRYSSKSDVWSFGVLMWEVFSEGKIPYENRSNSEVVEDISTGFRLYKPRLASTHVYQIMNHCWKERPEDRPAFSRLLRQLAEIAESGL
The assay can be described thus: Inhibition of ITK (unknown origin) assessed as residual activity at 100 nM by KINOMEscan analysis relative to control.

In assay [4] the test system is Mast/stem cell growth factor receptor Kit (Homo sapiens), P10721 [V559D]. The assay can be described thus: Inhibition of KIT V559D mutant (unknown origin) assessed as residual activity at 100 nM by KINOMEscan analysis relative to control.
Chain of Mast/stem cell growth factor receptor Kit (Homo sapiens), P10721 [V559D] (P10721 whole entry V559D): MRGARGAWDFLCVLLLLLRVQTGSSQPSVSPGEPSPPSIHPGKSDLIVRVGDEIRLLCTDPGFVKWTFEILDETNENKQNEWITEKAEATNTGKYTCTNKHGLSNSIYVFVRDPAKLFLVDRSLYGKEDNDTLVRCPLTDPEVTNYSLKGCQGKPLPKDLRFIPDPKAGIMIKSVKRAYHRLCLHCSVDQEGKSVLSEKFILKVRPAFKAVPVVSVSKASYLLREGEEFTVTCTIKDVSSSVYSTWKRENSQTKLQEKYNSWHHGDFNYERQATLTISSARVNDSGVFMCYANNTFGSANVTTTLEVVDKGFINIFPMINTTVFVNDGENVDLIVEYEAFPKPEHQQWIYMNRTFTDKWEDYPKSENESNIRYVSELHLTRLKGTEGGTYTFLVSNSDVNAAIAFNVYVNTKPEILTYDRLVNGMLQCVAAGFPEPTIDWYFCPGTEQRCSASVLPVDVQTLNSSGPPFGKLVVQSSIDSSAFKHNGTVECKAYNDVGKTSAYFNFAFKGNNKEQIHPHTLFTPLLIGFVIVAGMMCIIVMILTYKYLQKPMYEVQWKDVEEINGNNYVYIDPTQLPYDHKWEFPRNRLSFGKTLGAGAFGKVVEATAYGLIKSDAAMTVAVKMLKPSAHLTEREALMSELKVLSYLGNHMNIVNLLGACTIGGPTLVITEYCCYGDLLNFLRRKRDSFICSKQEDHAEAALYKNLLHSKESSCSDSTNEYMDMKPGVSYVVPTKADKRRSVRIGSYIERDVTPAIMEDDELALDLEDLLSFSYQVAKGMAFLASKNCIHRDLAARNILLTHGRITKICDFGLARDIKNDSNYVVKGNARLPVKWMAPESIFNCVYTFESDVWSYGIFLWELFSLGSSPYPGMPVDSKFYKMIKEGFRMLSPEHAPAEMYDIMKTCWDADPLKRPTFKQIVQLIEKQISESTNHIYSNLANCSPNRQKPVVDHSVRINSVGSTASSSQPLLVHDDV
Assay [5] has as its target T2, Serine/threonine-protein kinase LATS2 (Homo sapiens) (UniProt Q9NRM7).
T2 sequence (whole entry): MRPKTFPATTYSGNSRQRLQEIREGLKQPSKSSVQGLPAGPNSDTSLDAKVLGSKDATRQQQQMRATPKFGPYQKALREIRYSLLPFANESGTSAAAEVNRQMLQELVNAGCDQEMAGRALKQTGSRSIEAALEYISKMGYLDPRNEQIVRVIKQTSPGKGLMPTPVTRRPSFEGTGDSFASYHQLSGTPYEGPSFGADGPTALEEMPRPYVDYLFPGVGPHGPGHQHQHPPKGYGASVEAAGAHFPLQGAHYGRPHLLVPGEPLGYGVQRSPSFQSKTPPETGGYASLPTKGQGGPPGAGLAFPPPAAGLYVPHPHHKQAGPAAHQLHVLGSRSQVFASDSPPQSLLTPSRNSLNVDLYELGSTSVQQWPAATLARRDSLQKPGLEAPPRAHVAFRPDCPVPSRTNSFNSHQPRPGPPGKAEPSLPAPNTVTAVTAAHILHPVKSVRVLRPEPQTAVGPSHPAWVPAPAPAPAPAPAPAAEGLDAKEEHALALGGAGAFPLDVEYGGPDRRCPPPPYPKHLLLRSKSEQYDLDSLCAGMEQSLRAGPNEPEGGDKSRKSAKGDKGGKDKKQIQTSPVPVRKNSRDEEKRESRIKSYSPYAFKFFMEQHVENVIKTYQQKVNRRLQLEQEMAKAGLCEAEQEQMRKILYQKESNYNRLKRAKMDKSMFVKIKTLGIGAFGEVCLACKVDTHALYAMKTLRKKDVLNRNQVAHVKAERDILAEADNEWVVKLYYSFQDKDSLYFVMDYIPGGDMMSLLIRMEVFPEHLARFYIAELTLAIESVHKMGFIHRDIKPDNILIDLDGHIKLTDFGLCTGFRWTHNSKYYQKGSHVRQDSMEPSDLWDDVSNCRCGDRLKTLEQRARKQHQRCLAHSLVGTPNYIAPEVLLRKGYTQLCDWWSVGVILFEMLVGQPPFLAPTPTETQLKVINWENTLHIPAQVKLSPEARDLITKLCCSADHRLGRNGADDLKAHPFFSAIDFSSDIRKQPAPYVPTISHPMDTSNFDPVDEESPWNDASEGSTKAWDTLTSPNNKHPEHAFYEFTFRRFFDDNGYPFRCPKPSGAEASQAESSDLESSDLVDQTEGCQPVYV
The assay can be described thus: Inhibition of LATS2 (unknown origin) assessed as residual activity at 100 nM by KINOMEscan analysis relative to control.

Assay [6] concerns the target Mitogen-activated protein kinase kinase kinase 10 (Homo sapiens) (UniProt Q02779). The assay can be described thus: Inhibition of MLK2 (unknown origin) assessed as residual activity at 100 nM by KINOMEscan analysis relative to control.
The target of assay [7] is T3, Serine/threonine-protein kinase Nek5 (Homo sapiens) (UniProt Q6P3R8).
T3 sequence (whole entry): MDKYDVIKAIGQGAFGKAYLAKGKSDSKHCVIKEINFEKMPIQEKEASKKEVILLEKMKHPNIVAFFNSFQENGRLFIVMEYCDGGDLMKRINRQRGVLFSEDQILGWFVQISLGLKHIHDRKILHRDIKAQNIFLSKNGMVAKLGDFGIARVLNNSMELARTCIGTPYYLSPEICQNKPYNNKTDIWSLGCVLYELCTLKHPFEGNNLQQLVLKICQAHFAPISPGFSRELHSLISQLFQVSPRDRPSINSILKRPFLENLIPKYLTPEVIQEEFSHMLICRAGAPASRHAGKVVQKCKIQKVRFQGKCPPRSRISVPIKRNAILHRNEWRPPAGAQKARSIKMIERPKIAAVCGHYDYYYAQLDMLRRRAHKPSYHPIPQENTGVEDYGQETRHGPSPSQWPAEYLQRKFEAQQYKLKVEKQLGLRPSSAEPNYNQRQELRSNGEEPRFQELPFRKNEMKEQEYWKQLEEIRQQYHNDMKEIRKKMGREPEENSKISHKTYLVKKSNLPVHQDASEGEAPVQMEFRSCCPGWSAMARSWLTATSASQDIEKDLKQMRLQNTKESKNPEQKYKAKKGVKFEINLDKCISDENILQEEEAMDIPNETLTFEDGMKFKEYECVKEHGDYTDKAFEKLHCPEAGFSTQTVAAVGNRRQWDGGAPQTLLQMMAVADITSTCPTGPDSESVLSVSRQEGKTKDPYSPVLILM
In words: Inhibition of NEK5 (unknown origin) assessed as residual activity at 100 nM by KINOMEscan analysis relative to control.

Assay [8] has as its system Phosphatidylinositol 4,5-bisphosphate 3-kinase catalytic subunit alpha isoform (Homo sapiens), P42336 [H1047Y]. In words: Inhibition of PIK3CA H1047Y mutant (unknown origin) assessed as residual activity at 100 nM by KINOMEscan analysis relative to control.

SMILES strings stand for the structures.

Chain of Phosphatidylinositol 4,5-bisphosphate 3-kinase catalytic subunit alpha isoform (Homo sapiens), P42336 [H1047Y] (P42336 whole entry H1047Y, canonical isoform): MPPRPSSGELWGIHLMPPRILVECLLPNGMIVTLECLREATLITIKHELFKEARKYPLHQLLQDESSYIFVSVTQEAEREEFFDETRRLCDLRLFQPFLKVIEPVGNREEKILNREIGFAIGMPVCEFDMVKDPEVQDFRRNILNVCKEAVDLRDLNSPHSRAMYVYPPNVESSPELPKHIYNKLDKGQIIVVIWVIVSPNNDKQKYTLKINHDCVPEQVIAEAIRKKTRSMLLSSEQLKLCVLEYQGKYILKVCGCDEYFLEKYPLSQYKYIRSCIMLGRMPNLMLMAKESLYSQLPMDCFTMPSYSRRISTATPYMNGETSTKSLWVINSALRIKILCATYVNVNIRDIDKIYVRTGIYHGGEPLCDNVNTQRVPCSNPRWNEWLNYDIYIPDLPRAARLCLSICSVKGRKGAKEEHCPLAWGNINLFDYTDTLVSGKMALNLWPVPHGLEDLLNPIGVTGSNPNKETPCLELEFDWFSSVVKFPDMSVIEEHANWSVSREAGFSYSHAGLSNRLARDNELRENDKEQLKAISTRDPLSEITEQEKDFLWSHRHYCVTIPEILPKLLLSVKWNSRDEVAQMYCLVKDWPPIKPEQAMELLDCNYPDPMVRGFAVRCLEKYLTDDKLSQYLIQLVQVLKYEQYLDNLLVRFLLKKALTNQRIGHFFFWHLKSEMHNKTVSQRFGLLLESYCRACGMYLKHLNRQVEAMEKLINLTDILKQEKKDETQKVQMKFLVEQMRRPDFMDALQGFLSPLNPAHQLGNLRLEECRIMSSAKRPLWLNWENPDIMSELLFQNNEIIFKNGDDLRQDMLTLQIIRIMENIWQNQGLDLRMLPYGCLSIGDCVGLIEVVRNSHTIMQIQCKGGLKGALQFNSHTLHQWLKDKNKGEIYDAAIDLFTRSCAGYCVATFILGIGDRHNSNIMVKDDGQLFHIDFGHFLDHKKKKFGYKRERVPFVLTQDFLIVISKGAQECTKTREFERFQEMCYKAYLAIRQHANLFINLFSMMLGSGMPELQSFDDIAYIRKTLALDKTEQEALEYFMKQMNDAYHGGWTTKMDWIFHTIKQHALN
Chain of Cyclin-dependent kinase 3 (Homo sapiens) (Q00526 whole entry, looked up): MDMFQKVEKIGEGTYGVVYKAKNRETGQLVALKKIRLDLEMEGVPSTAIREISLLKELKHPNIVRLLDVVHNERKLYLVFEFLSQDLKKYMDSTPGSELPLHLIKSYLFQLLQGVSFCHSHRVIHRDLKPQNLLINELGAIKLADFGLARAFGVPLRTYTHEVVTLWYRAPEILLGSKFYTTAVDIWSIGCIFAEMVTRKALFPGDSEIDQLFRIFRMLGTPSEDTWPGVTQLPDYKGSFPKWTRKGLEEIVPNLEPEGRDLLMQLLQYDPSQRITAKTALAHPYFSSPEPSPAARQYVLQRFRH
Chain of Mitogen-activated protein kinase kinase kinase 10 (Homo sapiens) (Q02779 whole entry, looked up): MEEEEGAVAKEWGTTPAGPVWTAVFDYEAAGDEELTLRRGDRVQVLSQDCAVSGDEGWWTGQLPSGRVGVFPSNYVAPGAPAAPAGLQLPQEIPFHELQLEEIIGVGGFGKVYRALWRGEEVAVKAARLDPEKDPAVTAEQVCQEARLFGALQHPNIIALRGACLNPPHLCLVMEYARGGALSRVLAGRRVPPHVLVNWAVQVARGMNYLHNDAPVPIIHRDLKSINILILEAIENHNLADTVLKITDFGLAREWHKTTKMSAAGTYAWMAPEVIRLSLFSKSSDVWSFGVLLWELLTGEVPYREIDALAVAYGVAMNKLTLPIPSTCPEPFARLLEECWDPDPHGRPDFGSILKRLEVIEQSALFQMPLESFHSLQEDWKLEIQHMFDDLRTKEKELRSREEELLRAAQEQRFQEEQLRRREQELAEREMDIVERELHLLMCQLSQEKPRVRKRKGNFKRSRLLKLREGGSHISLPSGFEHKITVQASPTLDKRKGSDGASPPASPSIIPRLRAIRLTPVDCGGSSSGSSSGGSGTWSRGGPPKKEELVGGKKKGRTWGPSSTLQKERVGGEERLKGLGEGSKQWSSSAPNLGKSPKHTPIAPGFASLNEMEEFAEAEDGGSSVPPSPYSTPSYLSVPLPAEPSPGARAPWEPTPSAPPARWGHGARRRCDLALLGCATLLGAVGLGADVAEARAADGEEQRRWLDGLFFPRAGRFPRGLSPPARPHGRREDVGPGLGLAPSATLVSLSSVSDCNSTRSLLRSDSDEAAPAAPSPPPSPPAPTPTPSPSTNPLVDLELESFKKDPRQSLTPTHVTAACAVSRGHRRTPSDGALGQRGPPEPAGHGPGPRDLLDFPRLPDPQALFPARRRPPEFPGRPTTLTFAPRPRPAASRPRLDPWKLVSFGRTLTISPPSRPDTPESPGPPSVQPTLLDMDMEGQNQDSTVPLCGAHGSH
Chain of Serine/threonine-protein kinase B-raf (Homo sapiens), P15056 [V600E] (P15056 whole entry V600E): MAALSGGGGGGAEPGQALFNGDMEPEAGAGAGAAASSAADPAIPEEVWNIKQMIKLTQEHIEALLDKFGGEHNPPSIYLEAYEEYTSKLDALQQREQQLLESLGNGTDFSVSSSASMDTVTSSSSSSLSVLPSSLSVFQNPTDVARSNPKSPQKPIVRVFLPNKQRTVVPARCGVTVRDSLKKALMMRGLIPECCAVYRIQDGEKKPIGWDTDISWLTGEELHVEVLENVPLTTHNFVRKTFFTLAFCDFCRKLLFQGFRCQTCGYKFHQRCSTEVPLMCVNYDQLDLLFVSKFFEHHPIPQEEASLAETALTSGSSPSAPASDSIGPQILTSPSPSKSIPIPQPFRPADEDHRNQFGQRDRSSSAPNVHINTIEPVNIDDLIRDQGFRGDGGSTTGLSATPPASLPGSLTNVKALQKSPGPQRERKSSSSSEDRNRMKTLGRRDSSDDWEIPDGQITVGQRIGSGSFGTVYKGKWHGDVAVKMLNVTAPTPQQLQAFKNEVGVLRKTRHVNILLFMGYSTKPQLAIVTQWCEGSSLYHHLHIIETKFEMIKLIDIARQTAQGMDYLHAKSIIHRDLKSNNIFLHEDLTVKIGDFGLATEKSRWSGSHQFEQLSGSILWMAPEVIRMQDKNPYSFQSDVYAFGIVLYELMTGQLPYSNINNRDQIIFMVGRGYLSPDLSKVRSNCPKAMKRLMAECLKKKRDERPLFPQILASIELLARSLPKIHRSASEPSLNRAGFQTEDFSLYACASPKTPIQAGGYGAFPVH

In the case of `COc1cc2ncnc(N[C@H](C)c3cccc4ccccc34)c2cc1OC`, the Activity in assay [1] was found to be 92%; in assay [2], 95%; in assay [3], 73%; in assay [4], 100%; in assay [5], 87%; in assay [6] it was 100%. The values for the Activity in assay [7] and in assay [8] were 31% and 73%, respectively.

The record behind these values is ChEMBL document CHEMBL5678818, “Discovery of potent SOS1 inhibitors that block RAS activation via disruption of the RAS-SOS1 interaction” (Proc Natl Acad Sci U S A, 2019).
